Results reported in BindingDB's records for doi:10.1021/acschembio.7b00543 (University of Delaware, 2017).

Legend:
Test in all cases: Fluorometric Ub-AMC Hydrolysis Assay
Conditions in all cases: pH 7.5; 25 °C
[1] = target: T1, Ubiquitin carboxyl-terminal hydrolase isozyme L3 (Homo sapiens, UniProt P15374)
T1 sequence (P15374 whole entry): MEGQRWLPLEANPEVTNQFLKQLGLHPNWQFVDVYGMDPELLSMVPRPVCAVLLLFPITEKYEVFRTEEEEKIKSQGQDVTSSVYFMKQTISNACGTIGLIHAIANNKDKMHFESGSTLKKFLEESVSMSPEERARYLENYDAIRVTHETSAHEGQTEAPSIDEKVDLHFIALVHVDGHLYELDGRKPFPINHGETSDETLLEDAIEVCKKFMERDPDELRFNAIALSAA
Experimental: (§1) 2 nM UCHL1, UCHL5, USP15, USP2, or 2 pM UCHL3 were incubated with increasing concentrations of inhibitor in assay buffer for 5 min at room temperature. To initiate the reaction, 1 uM Ub-AMC was added and the fluorescence signal was detected for 60 s with a 380 nm excitation and 460 nm emission filter set.

[2] = target: T2, Ubiquitin carboxyl-terminal hydrolase isozyme L5 (Homo sapiens, UniProt Q9Y5K5)
T2 sequence (Q9Y5K5 whole entry): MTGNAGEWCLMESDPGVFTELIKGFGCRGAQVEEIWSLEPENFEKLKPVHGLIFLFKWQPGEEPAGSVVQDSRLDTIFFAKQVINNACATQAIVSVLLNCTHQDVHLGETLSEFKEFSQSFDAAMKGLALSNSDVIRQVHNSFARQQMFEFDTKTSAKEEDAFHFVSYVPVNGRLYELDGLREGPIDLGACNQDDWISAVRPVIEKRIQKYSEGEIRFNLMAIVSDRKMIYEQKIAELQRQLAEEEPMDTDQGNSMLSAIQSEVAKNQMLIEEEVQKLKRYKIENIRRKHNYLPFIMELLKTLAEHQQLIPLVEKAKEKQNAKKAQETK
Experimental: as §1

[3] = target: T3, Ubiquitin carboxyl-terminal hydrolase isozyme L1 (Homo sapiens, UniProt P09936)
T3 sequence (P09936 whole entry): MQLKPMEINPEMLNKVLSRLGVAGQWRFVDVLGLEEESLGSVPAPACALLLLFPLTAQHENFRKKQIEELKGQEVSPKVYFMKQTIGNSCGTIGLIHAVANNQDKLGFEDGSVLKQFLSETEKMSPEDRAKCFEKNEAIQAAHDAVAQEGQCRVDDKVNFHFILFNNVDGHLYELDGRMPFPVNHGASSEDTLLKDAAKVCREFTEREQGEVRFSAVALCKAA
Experimental: as §1

[4] = target: T4, Ubiquitin carboxyl-terminal hydrolase 2 (Homo sapiens, UniProt O75604)
T4 sequence (O75604 whole entry): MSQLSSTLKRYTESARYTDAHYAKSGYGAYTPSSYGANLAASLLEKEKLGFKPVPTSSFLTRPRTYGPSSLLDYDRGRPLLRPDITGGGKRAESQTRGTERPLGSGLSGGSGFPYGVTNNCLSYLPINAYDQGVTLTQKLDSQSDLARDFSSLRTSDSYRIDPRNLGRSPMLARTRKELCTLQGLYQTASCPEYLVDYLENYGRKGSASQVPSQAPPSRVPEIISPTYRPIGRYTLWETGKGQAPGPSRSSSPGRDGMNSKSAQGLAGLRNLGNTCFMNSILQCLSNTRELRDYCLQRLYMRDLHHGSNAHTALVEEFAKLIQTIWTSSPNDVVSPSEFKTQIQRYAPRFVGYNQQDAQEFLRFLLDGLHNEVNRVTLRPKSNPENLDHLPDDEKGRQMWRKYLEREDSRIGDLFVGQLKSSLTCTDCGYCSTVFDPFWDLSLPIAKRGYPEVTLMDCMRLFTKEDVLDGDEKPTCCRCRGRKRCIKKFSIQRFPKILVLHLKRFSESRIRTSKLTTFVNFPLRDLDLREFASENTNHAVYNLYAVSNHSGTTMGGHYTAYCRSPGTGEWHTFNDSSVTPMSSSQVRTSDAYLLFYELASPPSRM
Experimental: as §1

[5] = target: T5, Ubiquitin carboxyl-terminal hydrolase 15 (Homo sapiens, UniProt Q9Y4E8)
T5 sequence (Q9Y4E8 whole entry): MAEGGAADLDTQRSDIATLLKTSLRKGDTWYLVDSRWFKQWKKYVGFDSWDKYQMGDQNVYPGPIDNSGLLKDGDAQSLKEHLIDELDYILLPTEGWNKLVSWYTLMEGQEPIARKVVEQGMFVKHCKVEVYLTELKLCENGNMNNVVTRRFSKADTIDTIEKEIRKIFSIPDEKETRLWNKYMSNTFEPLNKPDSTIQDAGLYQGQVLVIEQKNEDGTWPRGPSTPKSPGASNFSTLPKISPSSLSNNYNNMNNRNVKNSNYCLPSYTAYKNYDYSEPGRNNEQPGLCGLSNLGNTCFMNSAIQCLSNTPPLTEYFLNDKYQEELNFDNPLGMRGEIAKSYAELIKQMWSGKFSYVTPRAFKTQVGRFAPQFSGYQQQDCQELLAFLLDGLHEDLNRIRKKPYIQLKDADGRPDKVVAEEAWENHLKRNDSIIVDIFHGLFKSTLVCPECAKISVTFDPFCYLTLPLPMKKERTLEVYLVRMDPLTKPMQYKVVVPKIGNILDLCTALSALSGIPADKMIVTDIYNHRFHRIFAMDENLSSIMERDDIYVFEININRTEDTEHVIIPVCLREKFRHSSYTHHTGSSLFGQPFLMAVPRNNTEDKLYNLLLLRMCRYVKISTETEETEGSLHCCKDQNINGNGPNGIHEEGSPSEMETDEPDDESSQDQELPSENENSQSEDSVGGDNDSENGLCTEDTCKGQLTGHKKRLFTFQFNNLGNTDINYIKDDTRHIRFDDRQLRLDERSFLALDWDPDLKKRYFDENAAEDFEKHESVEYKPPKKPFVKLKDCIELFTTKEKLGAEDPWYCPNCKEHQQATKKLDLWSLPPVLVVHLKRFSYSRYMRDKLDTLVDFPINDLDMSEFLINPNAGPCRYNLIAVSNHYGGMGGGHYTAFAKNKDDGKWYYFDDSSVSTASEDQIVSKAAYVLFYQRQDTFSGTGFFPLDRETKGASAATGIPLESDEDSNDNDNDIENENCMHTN
Experimental: as §1

## CC(=O)ON=C1C(=O)N(Cc2cc(Cl)ccc2Cl)c2ccc(Cl)cc21 [5-Chloro-1-[(2,5-dichlorophenyl)methyl]-1H-indole-2,3-dione 3-(O-acetyloxime)]
[1]
  IC50: 14.1 µM
[2]
  IC50: 16.2 µM

## CC1=C(O)C(=O)C=C2C1=CC=C1[C@@]2(C)CC[C@@]2(C)[C@@H]3C[C@](C)(C(=O)O)CC[C@]3(C)CC[C@]12C [Celastrol]
[1]
  IC50: 32.1 µM
[3]
  IC50: 6.8 µM
[4]
  IC50: 28.7 µM
[2]
  IC50: 56.6 µM
[5]
  IC50: 32.8 µM

## CO[C@H]1/C=C/O[C@@]2(C)Oc3c(C)c(O)c4c(c3C2=O)C(=O)/C(=C/NN2CCN(C)CC2)C(=C4O)NC(=O)/C(C)=C\C=C\[C@H](C)[C@H](O)[C@@H](C)[C@@H](O)[C@@H](C)[C@H](OC(C)=O)[C@@H]1C [Rifampicin]
[1]
  IC50: 24.8 µM
[3]
  IC50: 19.5 µM
[4]
  IC50: 21.2 µM
[2]
  IC50: 62.8 µM
[5]
  IC50: 46.1 µM

## CC(=O)Oc1c2c(c(CC=C(C)C)c3c1C(=O)C1=C[C@@H]4CC5C(C)(C)OC(C/C=C(\C)C(=O)O)(C4=O)[C@@]15O3)OC(C)(CCC=C(C)C)C=C2 (stereo not given in full)
[1]
  IC50: 15.4 µM
[3]
  IC50: 5.4 µM
[4]
  IC50: 18.2 µM
[2]
  IC50: 36.5 µM
[5]
  IC50: 11.1 µM

## Cc1cnc(-c2ccccc2C(C)C)nc1NCc1ccc(-n2ccnn2)cc1
[1]
  IC50: > 114 µM
[4]
  IC50: > 114 µM
[2]
  IC50: > 114 µM
